Test results as given in PMC8929364, “Metopimazine is primarily metabolized by a liver amidase in humans” (Pharmacology Research & Perspectives, 2021).

Experiment: Incubation of MPZ with human kidney microsomes (HKM)
Assay type: in vitro ADME
Conditions: pH 8.4, NADPH, HKM 0.5 mg/ml, 60 min
Protocol: MPZ, at 1.0 and 10.0 µM, was incubated with HLM or HKM to determine the contribution of microsomal FMOs on the metabolism of MPZ.
A reaction mixture containing KPi buffer (pH 8.4), HLM or HKM (0.5 mg/ml protein) and MPZ (1.0 and 10.0 µM) was pre‐incubated for 3–5 min at 37°C. The reaction was initiated by the addition of NADPH into the reaction mixture. The reaction was conducted for 0 and 60 min. A positive control (benzydamine, 100 µM) was incubated in duplicate for 0 and 20 min. Parallel incubation was conducted by adding 1 mM methimazole, a non‐specific FMO inhibitor, under identical conditions. Heat‐inactivated microsomes (50°C for at least 5 min) was incubated under identical conditions negative control. All other procedures were the same as described previously.

CS(=O)(=O)c1ccc2c(c1)N(CCCN1CCC(C(N)=O)CC1)c1ccccc1S2 [MPZ, metopimazine]
metabolite formation in HKM: did not produce any metabolites
